Values of other authors in patent publication US9475888B2, “Non anti-coagulative glycosaminoglycans comprising repeating disaccharide unit and their medical use” (DILAFOR AB, priority 2011, dated 2016).

Columns and labels:
[1] = species not specified
protracted labor = conditions: women receiving prophylaxis for deep venous thrombosis
uterus = conditions: Acta Obstetricia et Gynecologica, 2010; 89:147-150

corresponding bioavailability (subcutaneous) [1] | Substance | protracted labor (protracted labor) | contractility of the uterus (uterus)
about 10% | Heparin |  | 
 | dalteparin | decrease | increase
